In brackets after ≈: the same amount, converted by molar mass. Where two headings read alike, the source gives them in different places.
How the values were obtained:
Mtb AccD6 = Mtb AccD6 (Mycobacterium tuberculosis, UniProt P9WQH5); test: biochemical; format: biochemical; settings: for Mtb AccD6 inhibition: preliminary studies of commercially available herbicides; for IC50: 300 μM malonyl-CoA, inhibitor 10 μM to 2000 μM
Mtb strain mc^2-7000 = test: microbe, parasite or virus in culture; format: cell-based, Mycobacterium tuberculosis; settings: for whole Mycobacterium tuberculosis cell inhibition: preliminary studies of commercially available herbicides; for MIC: 6 days incubation at 37° C., resazurin, read on the 7th day
[1] = Mycobacterium tuberculosis, 144 h, read-out: MIC
[2] = 20 uM, pH 8.0, read-out: inhibition at 20 uM- pH 8.0
[3] = 20 uM, pH 8.5, read-out: inhibition at 20 uM- pH 8.5

Mtb AccD6, sequence (P9WQH5 whole entry, looked up): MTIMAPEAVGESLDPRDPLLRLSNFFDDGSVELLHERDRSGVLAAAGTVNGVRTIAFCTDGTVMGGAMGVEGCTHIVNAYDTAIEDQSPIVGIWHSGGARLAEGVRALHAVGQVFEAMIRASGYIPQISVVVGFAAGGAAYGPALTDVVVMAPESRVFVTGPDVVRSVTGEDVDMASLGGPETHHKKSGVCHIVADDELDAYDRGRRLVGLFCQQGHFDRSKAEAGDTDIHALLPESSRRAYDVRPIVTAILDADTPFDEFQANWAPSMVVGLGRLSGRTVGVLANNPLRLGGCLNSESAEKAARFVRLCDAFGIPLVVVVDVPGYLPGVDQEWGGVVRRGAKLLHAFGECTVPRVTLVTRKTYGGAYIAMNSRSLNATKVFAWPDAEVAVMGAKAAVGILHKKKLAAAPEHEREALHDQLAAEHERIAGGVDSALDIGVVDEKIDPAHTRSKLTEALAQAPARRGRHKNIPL

## CC(Oc1ccc(Oc2ccc(C(F)(F)F)cn2)cc1)C(=O)O (centres unmarked) [fluazifop, reference compound]
Mtb AccD6
  Mtb AccD6 inhibition: only haloxyfop exhibited Mtb AccD6 inhibition
Mtb strain mc^2-7000
  whole Mycobacterium tuberculosis cell inhibition: none exhibited whole Mycobacterium tuberculosis cell inhibition

## CN(O)C(=O)COc1ccc(Oc2cnc3cc(Cl)ccc3n2)cc1 [NZ-279, 2-{4-[(6-chloroquinoxalin-2-yl)oxy]phenoxy}-N-hydroxy-N-methylacetamide]
Mtb AccD6; read-out: IC50
  IC50: 0.8 µM
Mtb strain mc^2-7000; [1]
  MIC: > 50 µM

## O=C(COc1ccc(Oc2cnc3cc(Cl)ccc3n2)cc1)N1CCOCC1 [NZ-266, 2-{4-[(6-chloroquinoxalin-2-yl)oxy]phenoxy}-1-(morpholin-4-yl)ethan-1-one]
Mtb AccD6; read-out: IC50
  IC50: 0.99 µM
Mtb strain mc^2-7000; [1]
  MIC: > 12.5 µM

## CNC(=O)Cc1ccc(Oc2nc3cc(F)c(F)cc3s2)cc1F [NZ-411, 2-{4-[(5,6-difluoro-1,3-benzothiazol-2-yl)oxy]-2-fluorophenyl}-N-methylacetamide]
Mtb AccD6; read-out: IC50
  IC50: 0.24 µM

## O=C(COc1ccc(Oc2cnc3cc(Cl)ccc3n2)cc1)NO [NZ-286, 2-{4-[(6-chloroquinoxalin-2-yl)oxy]phenoxy}-N-hydroxyacetamide]
Mtb AccD6; read-out: IC50
  IC50: 1.4 µM
Mtb strain mc^2-7000; [1]
  MIC: 3 µM (≈ 1.04 µg/mL)

## CN1CCN(C(=O)Cc2ccc(Oc3nc4cc(F)c(F)cc4s3)cc2)CC1 [NZ-409, 2-{4-[(5,6-difluoro-1,3-benzothiazol-2-yl)oxy]phenyl}-1-(4-methylpiperazin-1-yl)ethan-1-one]
Mtb AccD6; read-out: IC50
  IC50: 0.66 µM

## Clc1ccc2nc(Oc3ccc(OCc4nnn[nH]4)cc3)cnc2c1 [NZ-268, 6-chloro-2-[4-(1H-1,2,3,4-tetrazol-5-ylmethoxy)phenoxy]quinoxaline]
Mtb AccD6; read-out: IC50
  IC50: 1.7 µM
Mtb strain mc^2-7000; [1]
  MIC: > 12.5 µM

## CC(C)NC(=O)Nc1ccc(Oc2nc3ccc(Cl)cc3s2)nn1 [WuXi-N7, 1-{6-[(6-chloro-1,3-benzothiazol-2-yl)oxy]pyridazin-3-yl}-3-(propan-2-yl)urea]
Mtb AccD6; read-out: inhibition at 20 uM
  inhibition at 20 µM: 18%

## O=C(COc1ccc(Oc2cnc3cc(Cl)ccc3n2)cc1)N1CCCCC1 [NZ-265, 2-{4-[(6-chloroquinoxalin-2-yl)oxy]phenoxy}-1-(piperidin-1-yl)ethan-1-one]
Mtb AccD6; read-out: IC50
  IC50: 0.57 µM
Mtb strain mc^2-7000; [1]
  MIC: 3 µM (≈ 1.19 µg/mL)

## cyhalofop [reference compound]
Mtb AccD6
  Mtb AccD6 inhibition: only haloxyfop exhibited Mtb AccD6 inhibition
Mtb strain mc^2-7000
  whole Mycobacterium tuberculosis cell inhibition: none exhibited whole Mycobacterium tuberculosis cell inhibition

## COC(=O)Cc1ccc(Oc2nc3ccc(Cl)cc3o2)cc1 [NZ-302, methyl 2-{4-[(6-chloro-1,3-benzoxazol-2-yl)oxy]phenyl}acetate]
Mtb AccD6; read-out: inhibition at 20 uM
  inhibition at 20 µM: 50%
Mtb strain mc^2-7000; [1]
  MIC: 3 µM

## CONC(=O)CN1CCC(Oc2nc3ccc(Cl)cc3s2)CC1 [WUXI-N4, 2-{4-[(6-chloro-1,3-benzothiazol-2-yl)oxy]piperidin-1-yl}-N-methoxyacetamide]
Mtb AccD6; 20 uM
  inhibition at 20 uM: No inhibition at 20 uM

## NCC(=O)Nc1ccc(Oc2nc3ccc(F)cc3s2)cc1 [NZ-417, 2-amino-N-{4-[(6-fluoro-1,3-benzothiazol-2-yl)oxy]phenyl}acetamide]
Mtb AccD6; read-out: inhibition at 20 uM
  inhibition at 20 µM: 10%

## C[C@@H](Oc1ccc(Oc2nc3ccc(Br)cc3s2)cc1)C(=O)O [NZ-253, (2R)-2-{4-[(6-bromo-1,3-benzothiazol-2-yl)oxy]phenoxy}propanoic acid]
Mtb AccD6; read-out: IC50
  IC50: > 15 µM

## CNC(=O)COc1ccc(Oc2cnc3cc(Cl)ccc3n2)cc1 [NZ-267, 2-{4-[(6-chloroquinoxalin-2-yl)oxy]phenoxy}-N-methylacetamide]
Mtb AccD6; read-out: IC50
  IC50: 2.4 µM
Mtb strain mc^2-7000; [1]
  MIC: > 25 µM

## CC(C)NC(=O)Cc1ccc(O)cc1Oc1nc2ccc(F)cc2s1 [NZ-406, 2-{2-[(6-fluoro-1,3-benzothiazol-2-yl)oxy]-4-hydroxyphenyl}-N-(propan-2-yl)acetamide]
Mtb AccD6
  IC50: Not Active
Mtb strain mc^2-7000; 50 uM
  % at 50 uM: 46% at 50 uM

## CN1CCN(C(=O)COc2ccc(Oc3cnc4cc(Cl)ccc4n3)cc2)CC1 [NZ-278, 2-{4-[(6-chloroquinoxalin-2-yl)oxy]phenoxy}-1-(4-methylpiperazin-1-yl)ethan-1-one]
Mtb AccD6; read-out: IC50
  IC50: 1.1 µM
Mtb strain mc^2-7000; [1]
  MIC: 3.1 µM (≈ 1.28 µg/mL)

## C[C@@H](Oc1ccc(Oc2nc3ccccc3s2)cc1)C(=O)O [NZ-254, (2R)-2-[4-(1,3-benzothiazol-2-yloxy)phenoxy]propanoic acid]
Mtb AccD6; read-out: IC50
  IC50: > 15 µM

## O=C(O)COc1ccc(Oc2cnc3cc(Cl)ccc3n2)cc1 [NZ-257, 2-{4-[(6-chloroquinoxalin-2-yl)oxy]phenoxy}acetic acid]
Mtb AccD6; read-out: IC50
  IC50: 1.5 to 1.9 µM

## N#CCOc1ccc(Oc2cnc3cc(Cl)ccc3n2)cc1 [NZ-263, 2-{4-[(6-chloroquinoxalin-2-yl)oxy]phenoxy}acetonitrile]
Mtb AccD6; read-out: IC50
  IC50: 7.8 µM
Mtb strain mc^2-7000; [1]
  MIC: > 50 µM

## NCCC(=O)Nc1ccc(Oc2nc3ccc(F)cc3s2)cc1 [NZ-416, 3-amino-N-{4-[(6-fluoro-1,3-benzothiazol-2-yl)oxy]phenyl}propanamide]
Mtb AccD6; read-out: inhibition at 20 uM
  inhibition at 20 µM: 20%

## CCOC(=O)[C@@H](C)Oc1ccc(Oc2nc3ccccc3s2)cc1 [NZ-252, ethyl (2R)-2-[4-(1,3-benzothiazol-2-yloxy)phenoxy]propanoate]
Mtb AccD6
  IC50: Not Soluble
Mtb strain mc^2-7000
  MIC: Not Soluble

## CCOC(=O)[C@@H](C)Oc1ccc(Oc2nc3ccc(Br)cc3s2)cc1 [NZ-250, ethyl (2R)-2-{4-[(6-bromo-1,3-benzothiazol-2-yl)oxy]phenoxy}propanoate]
Mtb strain mc^2-7000; [1]
  MIC: 3.12 µM (≈ 1.32 µg/mL)

## O=C(COc1ccc(Oc2cnc3cc(Cl)ccc3n2)cc1)NS(=O)(=O)c1ccccc1 [NZ-276, N-(benzenesulfonyl)-2-{4-[(6-chloroquinoxalin-2-yl)oxy]phenoxy}acetamide]
Mtb AccD6; read-out: IC50
  IC50: 7.3 µM
Mtb strain mc^2-7000; [1]
  MIC: 3.1 µM (≈ 1.46 µg/mL)

## Clc1ccc2nc(Oc3ccc(OCc4ncc[nH]4)cc3)cnc2c1 [NZ-273, 6-chloro-2-[4-(1H-imidazol-2-ylmethoxy)phenoxy]quinoxaline]
Mtb AccD6; read-out: IC50
  IC50: 7.9 µM
Mtb strain mc^2-7000; [1]
  MIC: > 25 µM

## Clc1ccc2nc(Oc3ccc(OCc4ncco4)cc3)cnc2c1 [NZ-271, 6-chloro-2-[4-(1,3-oxazol-2-ylmethoxy)phenoxy]quinoxaline]
Mtb AccD6; read-out: IC50
  IC50: 11.6 µM
Mtb strain mc^2-7000; [1]
  MIC: > 50 µM

## CC(Oc1ccc(Oc2ncc(C(F)(F)F)cc2Cl)cc1)C(=O)O (racemic) [haloxyfop, (RS)-2-{4-[3-chloro-5-(trifluoromethyl)-2-pyridyloxy]phenoxy}propionic acid, reference compound]
Mtb strain mc^2-7000
  whole Mycobacterium tuberculosis cell inhibition: none exhibited whole Mycobacterium tuberculosis cell inhibition

## O=C(COc1ccc(Oc2cnc3cc(Cl)ccc3n2)cc1)NS(=O)(=O)C(F)(F)F [NZ-275, 2-{4-[(6-chloroquinoxalin-2-yl)oxy]phenoxy}-N-trifluoromethanesulfonylacetamide]
Mtb AccD6; read-out: IC50
  IC50: 3.8 µM
Mtb strain mc^2-7000; [1]
  MIC: 12.5 µM (≈ 5.77 µg/mL)

## CC(C)=NOCCOC(=O)C(C)Oc1ccc(Oc2cnc3cc(Cl)ccc3n2)cc1 (centres unmarked) [propaquizafop, 2-{[(propan-2-ylidene)amino]oxy}ethyl 2-{4-[(6-chloroquinoxalin-2-yl)oxy]phenoxy}propanoate, reference compound]
Mtb AccD6; read-out: IC50
  IC50: 2.1 µM
Mtb strain mc^2-7000; [1]
  MIC: 1.56 µM (≈ 0.692 µg/mL)

## CNC(=O)Cc1ccc(Oc2nc3ccc(F)cc3s2)cc1F [NZ-410, 2-{2-fluoro-4-[(6-fluoro-1,3-benzothiazol-2-yl)oxy]phenyl}-N-methylacetamide]
Mtb AccD6; read-out: IC50
  IC50: 0.38 µM

## CC(C)(C)OC(=O)Nc1ccc(Oc2nc3ccc(F)cc3s2)cc1 [NZ-412, terl-butyl N-{4-[(6-fluoro-1,3-benzothiazol-2-yl)oxy]phenyl}carbamate]
Mtb AccD6; read-out: inhibition at 20 uM
  inhibition at 20 µM: 17%

## C[C@@H](Oc1ccc(Oc2nc3ccc([N+](=O)[O-])cc3s2)cc1)C(=O)O [NZ-261, (2R)-2-{4-[(6-nitro-1,3-benzothiazol-2-yl)oxy]phenoxy}propanoic acid]
Mtb AccD6; read-out: IC50
  IC50: 1.8 µM

## CC(C)NC(=O)Nc1ccc(Oc2nc3ccc(Cl)cc3s2)nc1 [WuXi-N6, 1-{6-[(6-chloro-1,3-benzothiazol-2-yl)oxy]pyridin-3-yl}-3-(propan-2-yl)urea]
Mtb AccD6; [2]
  inhibition at 20 µM: 11%
Mtb AccD6; [3]
  inhibition at 20 µM: 17%

## CONC(=O)CCN1CCC(Oc2nc3ccc(Cl)cc3s2)CC1 [WUXI-N5, 3-{4-[(6-chloro-1,3-benzothiazol-2-yl)oxy]piperidin-1-yl}-N-methoxypropanamide]
Mtb AccD6; 20 uM
  inhibition at 20 uM: No inhibition at 20 uM

## Nc1ccc(Oc2nc3ccc(F)cc3s2)cc1 [NZ-413, 4-[(6-fluoro-1,3-benzothiazol-2-yl)oxy]aniline]
Mtb AccD6; read-out: IC50
  IC50: 14 µM

## CCOC(=O)[C@@H](C)Oc1ccc(Oc2nc3ccc([N+](=O)[O-])cc3s2)cc1 [NZ-260, ethyl (2R)-2-{4-[(6-nitro-1,3-benzothiazol-2-yl)oxy]phenoxy}propanoate]
Mtb strain mc^2-7000; [1]
  MIC: 0.19 to 2.3 µM (≈ 0.0738 to 0.893 µg/mL)

## C[C@@H](Oc1ccc(Oc2nc3ccc(Cl)cc3s2)cc1)C(=O)O [NZ-247, (2R)-2-{4-[(6-chloro-1,3-benzothiazol-2-yl)oxy]phenoxy}propanoic acid]
Mtb AccD6; read-out: IC50
  IC50: 2.5 µM

## CC(C)NC(=O)Nc1ccc(Oc2nc3ccc(Cl)cc3s2)cn1 [WuXi-N8, 1-{5-[(6-chloro-1,3-benzothiazol-2-yl)oxy]pyridin-2-yl}-3-(propan-2-yl)urea]
Mtb AccD6; [2]
  inhibition at 20 µM: 40%
Mtb AccD6; [3]
  inhibition at 20 µM: 47%

## CC(C)(C)OC(=O)NCC(=O)Nc1ccc(Oc2nc3ccc(F)cc3s2)cc1 [NZ-415, tert-butyl N-[({4-[(6-fluoro-1,3-benzothiazol-2-yl)oxy]phenyl}carbamoyl)methyl]carbamate]
Mtb AccD6; read-out: IC50
  IC50: 20 µM

## COC(=O)COc1ccc(Oc2cnc3cc(Cl)ccc3n2)cc1 [NZ-256, methyl 2-{4-[(6-chloroquinoxalin-2-yl)oxy]phenoxy}acetate]
Mtb strain mc^2-7000; [1]
  MIC: 1.5 µM

## CCOC(=O)[C@@H](C)Oc1ccc(Oc2nc3ccc(Cl)cc3s2)cc1 [NZ-246, ethyl (2R)-2-{4-[(6-chloro-1,3-benzothiazol-2-yl)oxy]phenoxy}propanoate]
Mtb strain mc^2-7000; [1]
  MIC: 3 µM (≈ 1.13 µg/mL)

## C[C@@H](Oc1ccc(Oc2nc3ccc(F)cc3s2)cc1)C(=O)O [NZ-255, (2R)-2-{4-[(6-fluoro-1,3-benzothiazol-2-yl)oxy]phenoxy}propanoic acid]
Mtb AccD6; read-out: IC50
  IC50: 1.2 µM

From patent US10300071B2, “Compositions and methods for inhibition of mycobacteria” (priority 2014, dated 2019)
